From US9955691B2, “Macrocyclic picolinamides as fungicides” (DOW AGROSCIENCES LLC, priority 2014, dated 2018) come the findings set out here.

Structures are written as SMILES. Read-outs that look alike come from different tables or passages of the source. Bounds are passed on as bounds.

Series [1] concerns Mycosphaerella graminicola; Anamorph: Septoria tritici. In words: Fungicidal activity: Leaf Blotch of Wheat (SEPTTR). The series is classed as in vivo. As to conditions: Zymoseptoria tritici, wheat leaf blotch; for pest or weed control at 121.5 g/ha: Low Volume (121.5 g/H); for pest or weed control at 100 µg/mL: High Volume (100 ppm). Put shortly: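 Compounds were dissolved in acetone, diluted with nine volumes of water containing 110 ppm Triton X-100, and sprayed to run-off on first-leaf Yuma wheat seedlings inoculated with Septoria tritici spores before or after treatment. Plants were held in a dew chamber, then a 20° C. greenhouse. Percent control was derived from disease severity relative to untreated plants.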

For another series, the system named is Puccinia triticina. In words: Fungicidal activity: Wheat Brown Rust (PUCCRT). The series is classed as in vivo. As to conditions: for pest or weed control at 121.5 g/ha: Low Volume (121.5 g/H); for pest or weed control at 100 µg/mL: High Volume (100 ppm). Summed up: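 Wheat seedlings (Yuma, first leaf) sprayed to run-off with compound in acetone/water with Triton X-100, inoculated with Puccinia triticina before or after treatment. Held overnight in dark dew at 22° C, then greenhouse at 24° C; percent disease control from severity versus untreated plants.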

Where [2] appears, read: 24 h, 1 Day Protectant, read-out: SEPTTR 1 DP disease control.
Where [3] appears, read: 72 h, 3 Day Curative, read-out: SEPTTR 3 DC disease control.
Where [4] appears, read: 24 h, 1 Day Protectant, read-out: PUCCRT 1 DP disease control.
Setting [5] is: 72 h, 3 Day Curative, read-out: PUCCRT 3 DC disease control.

What is called melting point is the temperature, or range, at which the solid turns liquid. `COc1ccnc(C(=O)N[C@H]2COC[C@H](Cc3ccc(Cl)cc3)[C@@H](C3CCCC3)[C@H](C)OC2=O)c1OCOC(C)=O` [compound 88] displayed a melting point of 56 to 60 °C. In addition, the pest or weed control at 121.5 g/ha in series [1] (setting [2]) is more than 70%. The pest or weed control at 121.5 g/ha in series [1] (setting [3]) is less than 70%. The pest or weed control at 121.5 g/ha in the series on Puccinia triticina (setting [4]) is more than 70%. In addition, in the series on Puccinia triticina (setting [5]), the pest or weed control at 121.5 g/ha was less than 70%.
Consider `COc1ccnc(C(=O)N[C@H]2COC[C@H](Cc3ccccc3)[C@@H](Cc3ccccc3)[C@@H](C)OC2=O)c1O` [compound 111], for which the melting point lay within 201 to 204 °C. The pest or weed control at 100 µg/mL in series [1] (setting [2]) is more than 70%. For the same compound, the pest or weed control at 100 µg/mL in series [1] (setting [3]) is less than 70%. The pest or weed control at 100 µg/mL in the series with Puccinia triticina (setting [4]) is more than 70%. Besides, in the series on Puccinia triticina (setting [5]), the pest or weed control at 100 µg/mL is more than 70%.
Compound `COc1ccnc(C(=O)N[C@H]2COC[C@H](CCC(C)C)[C@@H](C3CCCC3)[C@H](C)OC2=O)c1OCOC(C)=O` [compound 93] came in with a melting point of 47 to 53 °C. Besides, the pest or weed control at 121.5 g/ha in series [1] (setting [2]) was more than 70%. In addition, the pest or weed control at 121.5 g/ha in series [1] (setting [3]) is less than 70%. For the same compound, the pest or weed control at 121.5 g/ha in the series with Puccinia triticina (setting [4]) was more than 70%. In the series with Puccinia triticina (setting [5]), the pest or weed control at 121.5 g/ha is less than 70%.
`COc1ccnc(C(=O)N[C@@H]2COC[C@@H](Cc3ccccc3)[C@H](COCC(C)C)[C@@H](C)OC2=O)c1OCOC(C)=O` [compound 13]: the melting point was in the range of 44 to 48 °C. For the same compound, in series [1] (setting [2]), the pest or weed control at 100 µg/mL is more than 70% and the pest or weed control at 121.5 g/ha is more than 70%. Moreover, in series [1] (setting [3]), the pest or weed control at 100 µg/mL was more than 70% and the pest or weed control at 121.5 g/ha is more than 70%. For the same compound, in the series with Puccinia triticina (setting [4]), the pest or weed control at 100 µg/mL is more than 70% and the pest or weed control at 121.5 g/ha was more than 70%. Besides, in the series on Puccinia triticina (setting [5]), the pest or weed control at 100 µg/mL was more than 70% and the pest or weed control at 121.5 g/ha was more than 70%.
`C=C[C@@H]1[C@@H](Cc2ccccc2)COC[C@H](NC(=O)c2nccc(OC)c2OCOC(C)=O)C(=O)O[C@H]1C` [compound 9] showed a melting point of 42 to 48 °C. Moreover, the pest or weed control at 100 µg/mL in series [1] (setting [2]) was more than 70%. The pest or weed control at 100 µg/mL in series [1] (setting [3]) was more than 70%. Besides, in the series on Puccinia triticina (setting [4]), the pest or weed control at 100 µg/mL is more than 70%. In addition, in the series with Puccinia triticina (setting [5]), the pest or weed control at 100 µg/mL is more than 70%.
Compound `COc1ccnc(C(=O)N[C@H]2COC[C@H](Cc3ccccc3)[C@@H](Cc3ccc(OC(F)(F)F)cc3)[C@H](C)OC2=O)c1O` [compound 131] gave a melting point of 63 to 69 °C. In addition, the pest or weed control at 100 µg/mL in series [1] (setting [2]) was more than 70%. The pest or weed control at 100 µg/mL in series [1] (setting [3]) is more than 70%. Also, in the series with Puccinia triticina (setting [4]), the pest or weed control at 100 µg/mL is more than 70%. In addition, the pest or weed control at 100 µg/mL in the series on Puccinia triticina (setting [5]) was more than 70%.
In turn, `CCC[C@H]1COC[C@H](NC(=O)c2nccc(OC)c2O)C(=O)O[C@@H](C)[C@@H]1Cc1ccc(F)cc1` [compound 155] showed a melting point of 43 to 48 °C. In addition, the pest or weed control at 100 µg/mL in series [1] (setting [2]) is more than 70%. The pest or weed control at 100 µg/mL in series [1] (setting [3]) is more than 70%. The pest or weed control at 100 µg/mL in the series on Puccinia triticina (setting [4]) is more than 70%. In addition, in the series on Puccinia triticina (setting [5]), the pest or weed control at 100 µg/mL was less than 70%.
`COc1ccnc(C(=O)N[C@H]2COC[C@H](Cc3ccc(Cl)cc3)[C@@H](C3CCCC3)[C@H](C)OC2=O)c1OC(=O)C(C)C` [compound 87]: the melting point was in the range of 73 to 77 °C. In series [1] (setting [2]), the pest or weed control at 121.5 g/ha was more than 70%. In addition, the pest or weed control at 121.5 g/ha in series [1] (setting [3]) is more than 70%. The pest or weed control at 121.5 g/ha with Puccinia triticina (setting [4]) was more than 70%. Also, the pest or weed control at 121.5 g/ha in the series with Puccinia triticina (setting [5]) is less than 70%.
The compound `COc1cccc(C[C@H]2COC[C@H](NC(=O)c3nccc(OC)c3OCOC(C)=O)C(=O)O[C@@H](C)[C@@H]2Cc2cccc(OC)c2)c1` [compound 17] gave a melting point of 51 to 55 °C. In series [1] (setting [2]), the pest or weed control at 121.5 g/ha was more than 70%. Also, the pest or weed control at 121.5 g/ha in series [1] (setting [3]) is more than 70%. For the same compound, in the series with Puccinia triticina (setting [4]), the pest or weed control at 121.5 g/ha was more than 70%. In addition, the pest or weed control at 121.5 g/ha with Puccinia triticina (setting [5]) is less than 70%.
Regarding `COc1ccnc(C(=O)N[C@H]2COC[C@H](Cc3ccc(Cl)cc3)[C@@H](Cc3ccc(OC(F)(F)F)cc3)[C@H](C)OC2=O)c1O` [compound 137], the melting point lay in the range of 64 to 68 °C. In addition, in series [1] (setting [2]), the pest or weed control at 100 µg/mL was less than 70%. In series [1] (setting [3]), the pest or weed control at 100 µg/mL is more than 70%. Further, the pest or weed control at 100 µg/mL in the series on Puccinia triticina (setting [4]) was more than 70%. In the series with Puccinia triticina (setting [5]), the pest or weed control at 100 µg/mL is less than 70%.
Turning to `COc1ccnc(C(=O)N[C@H]2COC[C@H](Cc3ccc(C(F)(F)F)cc3)[C@@H](CC(C)C)[C@H](C)OC2=O)c1OCOC(C)=O` [compound 71], the melting point is 54 to 59 °C. Besides, in series [1] (setting [2]), the pest or weed control at 121.5 g/ha was more than 70%. For the same compound, the pest or weed control at 121.5 g/ha in series [1] (setting [3]) was more than 70%. For the same compound, the pest or weed control at 121.5 g/ha in the series with Puccinia triticina (setting [4]) is more than 70%. In the series on Puccinia triticina (setting [5]), the pest or weed control at 121.5 g/ha is more than 70%.
Turning to `COc1ccnc(C(=O)N[C@H]2COC[C@H](CC3CC3)[C@@H](Cc3ccccc3)[C@H](C)OC2=O)c1OCOC(=O)C(C)C` [compound 70], the melting point lay in the range of 37 to 41 °C. Moreover, in series [1] (setting [2]), the pest or weed control at 121.5 g/ha was more than 70%. Also, in series [1] (setting [3]), the pest or weed control at 121.5 g/ha is more than 70%. For the same compound, the pest or weed control at 121.5 g/ha with Puccinia triticina (setting [4]) is more than 70%. In addition, the pest or weed control at 121.5 g/ha in the series with Puccinia triticina (setting [5]) is more than 70%.
Regarding `COc1ccnc(C(=O)N[C@H]2COC[C@H](Cc3ccc(Cl)cc3)[C@@H](C3CCCC3)[C@H](C)OC2=O)c1OC(C)=O` [compound 86], the melting point was in the range of 85 to 89 °C. Also, the pest or weed control at 121.5 g/ha in series [1] (setting [2]) is more than 70%. The pest or weed control at 121.5 g/ha in series [1] (setting [3]) is more than 70%. In the series with Puccinia triticina (setting [4]), the pest or weed control at 121.5 g/ha is more than 70%. In addition, the pest or weed control at 121.5 g/ha with Puccinia triticina (setting [5]) is more than 70%.
The compound `CCOCC(=O)OCOc1c(OC)ccnc1C(=O)N[C@H]1COC[C@H](Cc2ccc(Cl)cc2)[C@@H](C2CCCC2)[C@H](C)OC1=O` [compound 90, ((2-(((3S,7R,8R,9S)-7-(4-chlorobenzyl)-8-cyclopentyl-9-methyl-2-oxo-1,5-dioxonan-3-yl)carbamoyl)-4-methoxypyridin-3-yl)oxy)methyl 2-ethoxyacetate] had a melting point of 52 to 55 °C. For the same compound, in series [1] (setting [2]), the pest or weed control at 121.5 g/ha is more than 70%. The pest or weed control at 121.5 g/ha in series [1] (setting [3]) was more than 70%. Moreover, the pest or weed control at 121.5 g/ha with Puccinia triticina (setting [4]) is more than 70%. For the same compound, the pest or weed control at 121.5 g/ha with Puccinia triticina (setting [5]) is less than 70%.
As to `COc1ccnc(C(=O)N[C@H]2COC[C@H](Cc3ccccc3)[C@@H](COc3ccccc3)[C@H](C)OC2=O)c1OCOC(C)=O` [compound 96], the melting point was 56 to 61 °C. Besides, the pest or weed control at 121.5 g/ha in series [1] (setting [2]) was more than 70%. In addition, the pest or weed control at 121.5 g/ha in series [1] (setting [3]) was more than 70%. The pest or weed control at 121.5 g/ha in the series on Puccinia triticina (setting [4]) was more than 70%. In the series with Puccinia triticina (setting [5]), the pest or weed control at 121.5 g/ha was less than 70%.
For `COc1ccnc(C(=O)N[C@H]2COC[C@H](CCCc3ccccc3)[C@@H](CCc3ccccc3)[C@H](C)OC2=O)c1OCOC(C)=O` [compound 67], the melting point fell in the range of 37 to 40 °C. Further, the pest or weed control at 121.5 g/ha in series [1] (setting [2]) was less than 70%. Besides, the pest or weed control at 121.5 g/ha in series [1] (setting [3]) was less than 70%. For the same compound, the pest or weed control at 121.5 g/ha with Puccinia triticina (setting [4]) is less than 70%. Further, the pest or weed control at 121.5 g/ha in the series on Puccinia triticina (setting [5]) is less than 70%.
For `COc1ccnc(C(=O)N[C@H]2COC[C@H](CCC(C)C)[C@@H](C3CCCC3)[C@H](C)OC2=O)c1OC(=O)C(C)C` [compound 92, 2-(((3S,7R,8R,9S)-8-cyclopentyl-7-isopentyl-9-methyl-2-oxo-1,5-dioxonan-3-yl)carbamoyl)-4-methoxypyridin-3-yl isobutyrate], the melting point fell in the range of 47 to 51 °C. In series [1] (setting [2]), the pest or weed control at 121.5 g/ha was more than 70%. In addition, the pest or weed control at 121.5 g/ha in series [1] (setting [3]) is more than 70%. For the same compound, the pest or weed control at 121.5 g/ha in the series with Puccinia triticina (setting [4]) was more than 70%. In the series on Puccinia triticina (setting [5]), the pest or weed control at 121.5 g/ha is more than 70%.
